Results taken from patent publication US9597391B2, “Cyclic-dinucleotides and its conjugates as adjuvants and their uses in pharmaceutical compositions” (HELMHOLTZ_ZENTRUM FUER INFEKTIONSFORSCHUNG GMBH, priority 2005, dated 2017).
Entries after “also recorded” stand apart in the source; their conditions may differ.

Columns and labels:
BALB/c (H-2d) mice = test: β-gal-specific IgA in lung and vaginal lavages of immunized mice; type: in vivo; details: for β-gal-specific IgA in lung lavages: i.n. immunization, day 38, versus β-gal alone (FIG. 4, FIG. 5)
Experimental: Experimental protocol: at day 38, mice were sacrificed and the final sampling was performed. Vaginal and lung lavages were obtained by flushing the organs with 1 ml of PBS supplemented with 50 mM EDTA, 0.1% BSA, and 10 mM PMSF. Lavages were then centrifuged to remove debris (10 min at 3000×g), and supernatant fluids were stored at −20° C. To determine the concentration of total IgA present in the lung and vaginal lavages, serial dilutions of the corresponding samples were incubated in microtiter plates that were previously coated with goat anti-mouse IgA (Sigma Chemie), as capture antibodies (100 μl/well). Serial dilutions of purified mouse IgA (Sigma Chemie) were used to generate a standard curve.
To investigate the capacity of c-diGMP and c-diAMP, respectively, to stimulate mucosal responses against antigens co-administered by the i.n. and s.c. route, the production of β-gal-specific IgA in lung was analyzed (FIG. 5 for c-diAMP and FIG. 4 for c-diGMP) from immunized animals, immunized according to the protocol described in Example 2.

spleen cells [1] = test: [3H]thymidine proliferation of spleen cells from vaccinated mice restimulated in vitro with β-gal; type: in vivo; details: for T cell proliferation after i.n. and s.c. administration: versus β-gal alone; for proliferation of spleen cells, i.n. immunization / proliferation of spleen cells, s.c. immunization: day 38, in vitro restimulation with β-gal; for proliferation of spleen cells, i.n. immunization: low amounts of antigen (FIG. 6); for proliferation of spleen cells, s.c. immunization: [3H]thymidine (FIG. 6)
Experimental: Experimental protocol: Spleens were removed and pooled for analysis of cellular immune responses. Cells were grown in RPMI 1640 supplemented with 10% fetal calf serum, 100 U/ml of penicillin, 50 μg/ml of streptomycin, 5×10^−5 M 2-mercaptoethanol and 1 mM L-glutamine (GIBCO BRL, Karlsruhe, Germany) and maintained at 37° C. in a humidified 5% CO2 atmosphere. Spleen cell suspensions were adjusted to 5×10^6 cells/ml in complete medium, cells were seeded with 100 μl per well in a flat-bottomed 96-well microtiter plate (Nunc) and plates were incubated for 4 days in the presence of different concentrations of soluble β-gal. That is, T cell mediated immune responses were investigated at day 38 by measuring the proliferation after in vitro restimulation with β-Gal of cells which have been recovered from spleens before. Said spleen cells were obtained from vaccinated mice—said mice where immunized as described in Example 2—and incubated in the presence of different concentrations of the soluble β-Gal antigen. Each concentration was tested in quadruplicates. During the final 18 h of culture, 1 μCi of [3H]thymidine (Amersham International, Freiburg, Germany) was added to each well. Cells were then harvested on paper filters (Filtermat A; Wallac, Freiburg, Germany) by using a cell harvester (Inotech, Wohlen, Switzerland), and the amount of incorporated [3H]thymidine into the DNA of proliferating cells was determined by a β-scintillation counter (Wallac 1450, Micro-Trilux). The results are expressed as the arithmetic mean of [^3H]thymidine uptake in cpm.
Thirty eight days following vaccination, spleens cells were purified, re-stimulated in vitro in the presence of various amounts of β-galactosidase and their proliferative capacity was estimated by measuring the incorporation of [3H]thymidine into their DNA using a β-scintillation counter.

[2] = system: re-stimulated spleen cells; test: Cytokines in supernatants of in vitro re-stimulated spleen cells by cytometric bead array; type: in vivo, mice; details: for IL-6 secretion of re-stimulated spleen cells: versus β-Gal without adjuvant (FIGS. 8 and 9); for IFNγ secretion of re-stimulated spleen cells: versus β-Gal without adjuvant, c-diGMP data from i.n. immunized mice (FIG. 7, FIG. 9)
Experimental: Experimental protocol: Spleens from mucosal (i.n.) or parenteral (s.c.) vaccinated mice were removed and pooled for analysis of cellular immune responses. The protocol for vaccination was identical to the protocol described in Example 2. Cells were grown in RPMI 1640 supplemented with 10% fetal calf serum, 100 U/ml of penicillin, 50 μg/ml of streptomycin, 5×10^−5 M 2-mercaptoethanol and 1 mM L-glutamine (GIBCO BRL, Karlsruhe, Germany) and maintained at 37° C. in a humidified 5% CO2 atmosphere. Spleen cell suspensions were adjusted to 5×10^6 cells/ml in complete medium, cells were seeded with 100 μl per well in a flat-bottomed 96-well microtiter plate (Nunc) and plates were incubated for 4 days in the presence of different concentrations of soluble β-gal.
To characterize the type of Th response stimulated following immunization, the content of IFNγ, IL-6, IL-10, IL-12 (for c-diAMP only), MCP-1, and TNFα was measured in supernatants from in vitro re-stimulated spleen cells (FIG. 7 and 8 for c-diGMP and FIG. 9 for c-diAMP) by the Cytometric Bead Array. Culture supernatants from proliferating cells were collected on days 2 and 4, and stored at −70° C. Determination of IFNγ, TNFα, IL-6, IL-10, IL-12, and MCP-1 was performed by cytometric bead array (CBA) analysis using the commercial kit from BectonDickinson, according to the manufacturer's instructions or with commercially available ELISA systems. For CBA analysis, a standard curve was generated for each cytokine by using the corresponding recombinant murine cytokines (Pharmingen). Probes were incubated at room temperature for additional 2h. The probes were analyzed subsequently by flow cytometry as described in the protocol of BD.

spleen cells [3] = test: ELISPOT of cytokine producing spleen cells from vaccinated mice; type: in vivo; details: for expression of various cytokines: administered as an adjuvant (FIG. 10); for splenic IL-2 producing cells / splenic IL-4 producing cells: i.n. and s.c. route, restimulation with β-Gal protein; for antigen-specific IFNγ secreting cells / antigen-specific IL-2 secreting cells / antigen-specific IL-4 secreting cells: mice receiving adjuvant; for number of splenic IFNγ producing cells, parenteral vaccination: s.c., restimulation with MHC class I-restricted β-Gal peptide (CD8 epitope) (FIG. 10)
Experimental: Experimental protocol: Spleens from vaccinated mice were removed and pooled for analysis of cellular immune responses. The protocol for vaccination was identical to the protocol described in Example 2. Cells were grown in RPMI 1640 supplemented with 10% fetal calf serum, 100 U/ml of penicillin, 50 μg/ml of streptomycin, 5×10^−5 M 2-mercaptoethanol and 1 mM L-glutamine (GIBCO BRL, Karlsruhe, Germany) and maintained at 37° C. in a humidified 5% CO2 atmosphere. […]
For coating ELISPOT plates, said plates were incubated with 100 μl/well of purified capture antibody (10 μg/ml in coating buffer) at 4° C. overnight. After 6× washing steps, the plates were blocked with 200 μl/well of complete RPMI-1640 at room temperature for 1 hour. The activated cells were seeded at 100 μl per well and incubate at 37° C., in a 5% CO2 humidified incubator for 24 hours or 48h hours. After 5× washing steps with washing buffer and 1× step with distilled water, 100 μl/well of the biotinylated detection antibody with a concentration of 1 μg/ml in Assay Diluent was added and incubated at room temperature for 2 hrs. After further washing steps 100 μl/well of the AV-HRP at 1/1000 dilution in Assay Diluent was added and incubated at room temperature for 30 minutes. After further washing steps 100 μl/well of AEC Substrate Solution was added and developed at room temperature for 10-60 minutes until visible spots appeared. After washing steps with (3×) with 200 μl/well distilled water, the plates were air-dried and analyzed by counting the spots by an ELISPOT reader. Each concentration was tested in triplicates.

SMILES | β-gal specific sIgA expression in vaginal lavage (BALB/c (H-2d) mice; c-diAMP as adjuvant, i.n. (FIG. 5)) | β-gal-specific IgA in lung lavages (BALB/c (H-2d) mice) | T cell proliferation after i.n. and s.c. administration (spleen cells [1]) | proliferation of spleen cells, i.n. immunization (spleen cells [1]) | proliferation of spleen cells, s.c. immunization (spleen cells [1]) | type of Th response induced ([2]; mice immunized with β-gal plus adjuvant) | TNFα secretion of re-stimulated spleen cells ([2]; versus β-Gal without adjuvant (FIG. 9)) | IL-6 secretion of re-stimulated spleen cells [2] | IFNγ secretion of re-stimulated spleen cells [2] | expression of various cytokines (spleen cells [3]) | splenic IL-2 producing cells (spleen cells [3]) | splenic IL-4 producing cells (spleen cells [3]) | antigen-specific IFNγ secreting cells (spleen cells [3]) | antigen-specific IL-2 secreting cells (spleen cells [3]) | antigen-specific IL-4 secreting cells (spleen cells [3]) | number of splenic IFNγ producing cells, parenteral vaccination (spleen cells [3]) | β-gal-specific IgA in lung lavages (BALB/c (H-2d) mice; listed as c-dGMP) | β-gal specific sIgA expression in vaginal lavage, s.c. route (BALB/c (H-2d) mice; s.c. route (not shown)) | Th1 like cytokines in antigen restimulated spleen cells ([2]; β-gal/c-diGMP versus β-gal alone (FIG. 8B))
Nc1ncnc2c1ncn2[C@@H]1O[C@@H]2COP(=O)(O)O[C@H]3[C@@H](O)[C@H](n4cnc5c(N)ncnc54)O[C@@H]3COP(=O)(O)O[C@H]2[C@H]1O [c-diAMP, cyclic bis(3′-5′)diadenylic acid] | detectable | significant increase | statistically significant increment | efficient proliferative response | further increase in proliferation | balanced Th1/Th2 response | enhanced secretion | same results | enhanced secretion | increased expression | strong expression | strong expression | increased in number | increased in number | increased in number | increment |  |  | 
Nc1nc2c(ncn2[C@@H]2O[C@@H]3COP(=O)(O)O[C@H]4[C@@H](O)[C@H](n5cnc6c(=O)[nH]c(N)nc65)O[C@@H]4COP(=O)(O)O[C@H]3[C@H]2O)c(=O)[nH]1 [c-diGMP, cyclic bis(3′-5′)diguanylic acid] |  | higher | statistically significant increment | efficient proliferative response | further increase in proliferation |  |  | same results | strong expression; also recorded: enhanced secretion | increased expression | strong expression | strong expression | increased in number | increased in number | increased in number | increment | significant increase | does not lead to an enhanced expression | high expression
